# Values quoted from earlier work as cited in patent US9546401B2, “Assays and methods for selecting a treatment regimen for a subject with depression” (The General Hospital Corporation, priority 2011, dated 2017).
# Like-named read-outs stand apart in the source and are kept apart here.
# Experiments:
# [1] = test system: depression; settings: parenteral and certain oral forms; cited from earlier work
# [2] = test system: adults with major depression; settings: cited from earlier work
# [3] = test system: adults with MDD and partial or nonresponse to an SSRI; settings: cited from earlier work
structure (smiles),measurement,setting,value
"C[S+](CC[C@H](N)C(=O)O)C[C@H]1O[C@@H](n2cnc3c(N)ncnc32)[C@H](O)[C@@H]1O (stereo partly shown) [SAM, S-adenosyl methionine]",antidepressant efficacy,[1],antidepressant efficacy greater than placebo and comparable to that of tricyclic antidepressants
CNCCC(Oc1ccc(C(F)(F)F)cc1)c1ccccc1 (stereo not shown) [fluoxetine],rate of non-response,[2]; individuals with low or deficient serum folate,35%
same,rate of non-response,[2]; serum folate levels in the normal range,20%
"Nc1nc2c(c(=O)[nH]1)N(C=O)C(CNc1ccc(C(=O)N[C@@H](CCC(=O)O)C(=O)O)cc1)CN2 (stereo partly shown) [folinic acid, Folinic acid]",Folate levels after treatment,"[3]; 15-30 mg/day added to SSRIs, 8 weeks, baseline 28+/−19 ng/mL",301 ± 203 ng/mL
same,HAM-D-17 score after treatment,"[3]; 16 completers, baseline 19.1+/−3.9",12.8+/−7.0
same,remission (HAM-D-17 no greater than 7),[3]; ITT sample,18%
same,remission (HAM-D-17 no greater than 7),[3]; completers,19%
same,response (at least 50% reduction in HAM-D-17),[3]; completers,31%
same,efficacy as an adjunct in SSRI-refractory depressed individuals with normal folate levels,[3]; in vivo,only modestly effective
same,response (at least 50% reduction in HAM-D-17),[3]; intent-to-treat (ITT) sample,27%
